Measured values published in the supplement of paper PMC10307832.

Columns and labels:
Experiment in all cases: relative viability (nuclei count vs DMSO), 5 days (fraction); higher = more cells survive
Bleomycin = compound: CC1=C(N=C(N=C1N)[C@H](CC(=O)N)NC[C@@H](C(=O)N)N)C(=O)N[C@@H]([C@H](C2=CN=CN2)OC3C(C(C(C(O3)CO)O)O)OC4C(C(C(C(O4)CO)O)OC(=O)N)O)C(=O)N[C@H](C)[C@H]([C@H](C)C(=O)N[C@@H]([C@@H](C)O)C(=O)NCCC5=NC(=CS5)C6=NC(=CS6)C(=O)NCCC[S+](C)C)O [Bleomycin]; conditions: main component drawn
Procedure, shortened: (§1)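 Cells of lung cancer lines were placed in 1536-well plates and kept overnight at 37 °C. Pinning then delivered five library-drug doses (not always all listed), spaced by √10, onto plates anchored with vehicle, and the cells were left 5 days without changing medium. One step fixed, permeabilised and stained them with Hoechst, and MetaXpress counted nuclei in 4× images. Viability, as a median over plates, is treated-well nuclei divided by vehicle-well nuclei, with acceptance only at control CV below 25% and at least one doubling.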

Etoposide = compound: COc1cc([C@@H]2c3cc4c(cc3[C@@H](O[C@@H]3O[C@@H]5CO[C@@H](C)O[C@H]5[C@H](O)[C@H]3O)[C@H]3COC(=O)[C@H]23)OCO4)cc(OC)c1O [Etoposide]
Procedure, shortened: as §1

Bleomycin + Navitoclax = compound: CC1=C(N=C(N=C1N)[C@H](CC(=O)N)NC[C@@H](C(=O)N)N)C(=O)N[C@@H]([C@H](C2=CN=CN2)OC3C(C(C(C(O3)CO)O)O)OC4C(C(C(C(O4)CO)O)OC(=O)N)O)C(=O)N[C@H](C)[C@H]([C@H](C)C(=O)N[C@@H]([C@@H](C)O)C(=O)NCCC5=NC(=CS5)C6=NC(=CS6)C(=O)NCCC[S+](C)C)O [Bleomycin] + CC1(C)CCC(c2ccc(Cl)cc2)=C(CN2CCN(c3ccc(C(=O)NS(=O)(=O)c4ccc(N[C@H](CCN5CCOCC5)CSc5ccccc5)c(S(=O)(=O)C(F)(F)F)c4)cc3)CC2)C1 [Navitoclax] (partner 0.5 µM); conditions: main component drawn
Procedure, shortened: (§2)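 Lung cancer cell lines were seeded in 1536-well plates and dosed by pin tool the next day, with either a single drug or a fixed anchor-drug dose combined with five library-drug doses (not always all listed) spaced in √10 steps. Five days later, one step fixed the cells and stained their nuclei (final 0.05% Triton X-100, 1% formaldehyde, 1 ug/ml Hoechst), and nuclei were counted on 4× images. Relative viability is the nuclei count in treated wells divided by the count in vehicle wells, and each value is the median of duplicate plates.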

Bleomycin + Foretinib = compound: CC1=C(N=C(N=C1N)[C@H](CC(=O)N)NC[C@@H](C(=O)N)N)C(=O)N[C@@H]([C@H](C2=CN=CN2)OC3C(C(C(C(O3)CO)O)O)OC4C(C(C(C(O4)CO)O)OC(=O)N)O)C(=O)N[C@H](C)[C@H]([C@H](C)C(=O)N[C@@H]([C@@H](C)O)C(=O)NCCC5=NC(=CS5)C6=NC(=CS6)C(=O)NCCC[S+](C)C)O [Bleomycin] + COc1cc2c(Oc3ccc(NC(=O)C4(C(=O)Nc5ccc(F)cc5)CC4)cc3F)ccnc2cc1OCCCN1CCOCC1 [Foretinib] (partner 0.25 µM); conditions: main component drawn
Procedure, shortened: as §2

Row | Cell Line | relative viability (Bleomycin; 0.01 µM) | relative viability (Bleomycin; 0.03162 µM) | relative viability (Bleomycin; 0.1 µM) | relative viability (Bleomycin; 0.3162 µM) | relative viability (Bleomycin; 1 µM) | relative viability (Etoposide; 0.01 µM) | relative viability (Etoposide; 0.03162 µM) | relative viability (Etoposide; 0.1 µM) | relative viability (Etoposide; 0.3162 µM) | relative viability (Etoposide; 1 µM) | relative viability (Bleomycin + Navitoclax; first compound 0.01 µM) | relative viability (Bleomycin + Navitoclax; first compound 0.03162 µM) | relative viability (Bleomycin + Navitoclax; first compound 0.1 µM) | relative viability (Bleomycin + Navitoclax; first compound 0.3162 µM) | relative viability (Bleomycin + Navitoclax; first compound 1 µM) | relative viability (Bleomycin + Foretinib; first compound 0.01 µM) | relative viability (Bleomycin + Foretinib; first compound 0.03162 µM) | relative viability (Bleomycin + Foretinib; first compound 0.1 µM) | relative viability (Bleomycin + Foretinib; first compound 0.3162 µM) | relative viability (Bleomycin + Foretinib; first compound 1 µM)
1 | A-427 | 0.795 | 0.811 | 0.748 | 0.326 | 0.2 | 0.968 | 1.12 | 0.699 | 0.612 | 0.237 | 0.844 | 0.888 | 0.991 | 0.787 | 0.27 | 0.862 | 0.873 | 0.935 | 0.481 | 0.284
2 | LCLC-97TM1 | 0.394 | 0.525 | 0.258 | 0.16 | 0.0918 | 0.945 | 1.14 | 0.634 | 0.468 | 0.138 | 0.191 | 0.197 | 0.102 | 0.152 | 0.1 | 0.912 | 0.809 | 0.628 | 0.274 | 0.176
3 | NCI-H1703 | 0.928 | 0.895 | 0.826 | 0.381 | 0.272 | 0.761 | 1.03 | 0.75 | 0.711 | 0.371 | 1.05 | 1.11 | 0.531 | 0.278 | 0.203 | 0.298 | 0.325 | 0.306 | 0.283 | 0.275
4 | RERF-LC-KJ | 0.694 | 0.675 | 0.591 | 0.308 | 0.271 | 0.846 | 1.06 | 0.861 | 0.873 | 0.653 | 0.54 | 0.5 | 0.439 | 0.227 | 0.192 | 0.735 | 0.693 | 0.633 | 0.377 | 0.307
5 | BEN | 0.94 | 0.943 | 0.973 | 0.638 | 0.742 | 0.932 | 0.986 |  | 1 | 0.913 | 0.0606 | 0.0742 | 0.0676 | 0.0599 | 0.0555 | 0.626 | 0.582 | 0.587 | 0.379 | 0.329
6 | NCI-H1666 | 0.781 | 0.737 | 0.649 | 0.474 | 0.451 | 0.947 | 0.908 | 0.818 | 0.483 | 0.414 | 0.761 | 0.579 | 0.518 | 0.362 | 0.324 | 0.763 | 0.675 | 0.533 | 0.44 | 0.398
7 | LC-2-ad | 0.756 | 0.726 | 0.549 | 0.262 | 0.192 | 0.974 | 1.07 | 0.837 | 0.718 | 0.261 | 0.333 | 0.364 | 0.24 | 0.123 | 0.13 | 0.754 | 0.729 | 0.483 | 0.264 | 0.281
8 | SW 1573 | 0.743 | 0.705 | 0.677 | 0.396 | 0.286 | 0.968 | 0.986 | 0.635 | 0.309 | 0.167 | 0.652 | 0.571 | 0.515 | 0.201 | 0.104 | 0.811 | 0.813 | 0.748 | 0.468 | 0.308
9 | ChaGo-K-1 | 0.832 | 0.895 | 0.846 | 0.58 | 0.387 | 1.04 | 1.06 | 0.858 | 0.481 | 0.308 |  | 0.914 | 0.724 | 0.386 | 0.307 | 0.831 | 0.75 | 0.754 | 0.507 | 0.444
10 | COR-L 105 | 0.943 | 0.87 | 0.759 | 0.556 | 0.404 | 0.979 | 0.98 | 0.638 | 0.823 | 0.662 | 0.59 | 0.884 | 0.716 | 0.483 | 0.28 | 0.895 | 1 | 0.952 | 0.761 | 0.498
11 | NCI-H1975 | 0.746 | 0.714 | 0.589 | 0.289 | 0.226 | 0.842 | 1.07 | 0.817 | 0.809 | 0.402 | 0.872 | 0.878 | 0.584 | 0.28 | 0.222 | 0.708 | 0.582 | 0.434 | 0.191 | 0.198
12 | Calu-6 | 0.77 | 0.784 | 0.495 | 0.205 | 0.174 | 0.938 | 0.985 | 1.05 | 0.684 | 0.365 | 0.459 | 0.336 | 0.207 | 0.114 | 0.0817 | 0.646 | 0.549 | 0.29 | 0.132 | 0.107
13 | NCI-H1993 | 0.853 | 0.899 | 0.876 | 0.601 | 0.564 | 0.727 | 1.1 | 0.636 | 0.783 | 0.501 | 0.887 | 0.765 | 0.863 | 0.663 | 0.584 | 0.809 | 0.667 | 0.796 | 0.644 | 0.479
14 | SK-LU-1 | 0.897 | 1.01 | 0.909 | 0.588 | 0.411 | 0.99 | 1.03 | 0.67 | 0.413 | 0.264 | 0.807 | 1.06 | 0.662 | 0.205 | 0.264 | 0.704 | 0.874 | 0.815 | 0.461 | 0.365
